# What was measured:
# [1] = species on record: Homo sapiens; conditions: hepatocytes
# Description: In vitro clearance in human in 1000000 cells
# [2] = species on record: Rattus norvegicus; conditions: hepatocytes
# Description: In vitro clearance in rat in 1000000 cells
# [3] = in vivo; conditions: dog
# [4] = in vivo; conditions: rat
# [5] = clinical; conditions: human, in vivo
# Description: In vivo clearance in human
# [6] = species on record: Canis familiaris; conditions: dog, hepatocytes
# Description: In vitro clearance in dog in 1000000 cells
# [7] = in vivo; conditions: dog; remark: listed apart in the source
# Description: In vivo clearance in dog.
# [8] = in vivo; conditions: rat; remark: listed apart in the source
# Description: In vivo clearance in rat.
# [9] = clinical; conditions: human, in vivo; remark: listed apart in the source
# Description: In vivo clearance in human.
Compound,clearance [1] [µL/min],clearance [2] [µL/min],clearance [3] [mL/min/kg],clearance [4] [mL/min/kg],clearance [5] [mL/min/kg],clearance [6] [µL/min],clearance [7] [mL/min/kg],clearance [8] [mL/min/kg],clearance [9] [mL/min/kg]
CC(C)(C)S(=O)(=O)C[C@@H](Cc1ccccc1)C(=O)N[C@@H](Cc1cnc[nH]1)C(=O)N[C@@H](CC1CCCCC1)[C@@H](O)[C@@H](O)C1CC1,19.5,16.6,3,119,19.6,–,–,–,–
Cc1cc(=O)n(-c2ccccc2)n1C [ANTIPYRINE],0.1,0.4,4.9,7,0.5,1,–,–,–
COc1ccccc1Oc1c(NS(=O)(=O)c2ccc(C(C)(C)C)cc2)nc(-c2ncccn2)nc1OCCO [BOSENTAN],0.2,1.3,–,–,–,0.2,1.9,55,3.7
Cn1c(=O)c2c(ncn2C)n(C)c1=O [CAFFEINE],0.1,0.6,2.6,13,2,0.2,–,–,–
COc1ccc([C@@H]2Sc3ccccc3N(CCN(C)C)C(=O)[C@@H]2OC(C)=O)cc1 [DILTIAZEM],1.9,43.6,–,–,–,2.7,46.1,87.2,–
O=C1Nc2ccc(Cl)cc2C(c2ccccc2Cl)=NC1O (stereo not given) [LORAZEPAM],0.3,3.8,26.1,27.2,1.1,18.1,–,–,–
COCC(=O)O[C@]1(CCN(C)CCCc2nc3ccccc3[nH]2)CCc2cc(F)ccc2[C@@H]1C(C)C [MIBEFRADIL],0.9,5.4,–,–,–,6.2,36,94,7
Cc1ncc2n1-c1ccc(Cl)cc1C(c1ccccc1F)=NC2 [MIDAZOLAM],4.5,16.7,–,–,–,–,–,130,11
C/C(=C\c1ccc(OCCN2CCOCC2)cc1)c1ccc2c(c1)C(C)(C)CCC2(C)C [MOFAROTENE],2,2.3,–,–,–,1,5.8,16,11
C=CCN1CC[C@]23c4c5ccc(O)c4O[C@H]2C(=O)CC[C@@]3(O)[C@H]1C5 [NALOXONE],16.7,54.6,42.5,48.8,25,32.1,–,–,–
COC(=O)C1=C(C#N)NC(C)=C(C(=O)OC(C)C)C1c1cccc([N+](=O)[O-])c1 (stereo not given) [NILVADIPINE],13.3,29.7,15.3,94,20,10.9,–,–,–
CCOC(=O)C1=C(C)NC(C)=C(C(=O)OC)C1c1cccc([N+](=O)[O-])c1 (stereo not given) [NITRENDIPINE],12,24,21.7,16.5,18.7,8.1,–,–,–
Cn1c(=O)c2[nH]cnc2n(C)c1=O.O [THEOPHYLLINE],0.1,0.2,1.5,2.2,0.6,0.2,–,–,–
Cc1ccc(C(=O)c2cc(O)c(O)c([N+](=O)[O-])c2)cc1 [TOLCAPONE],1.2,2.6,3.3,15,2.7,1.4,–,–,–

# Source: ChEMBL document CHEMBL1132496, “Combining in vitro and in vivo pharmacokinetic data for prediction of hepatic drug clearance in humans by artificial neural networks and multivariate statistical techniques” (J Med Chem, 1999)
